Reference: patent US6395293B2, “Biodegradable implant precursor” (Atrix Laboratories, priority 1989, dated 2002)

Key:
[1] = Cumulative release of flurbiprofen from implant matrix at different polymer concentrations; type: physicochemical; settings: about 5% flurbiprofen; for cumulative release: about 55% poly(DL-lactide); for cumulative percent release: polymer concentration about 45%
Description: The release rate of the bioactive agent from the implant matrix may also be adjusted by varying the concentration of the polymer in the polymer solution. For example, the more dilute the polymer concentration, the more readily the bioactive agent will be released from the implant matrix. For example, in a system containing about 5% flurbiprofen and a polymer concentration of about 55% poly(DL-lactide), a cumulative release of about 11.4% at day 1 and about 23% at day 7 may be provided. With a polymer concentration of about 45%, the cumulative percent release is about 23% at day 1 and about 40% at day 7.

[2] = Ex vivo release of bioactive agent from poly(DL-lactide) implant matrix, with and without release rate modification agent; type: physicochemical
Description: The use of a release rate modification agent may either decrease or increase the release of the bioactive agent in the range of multiple orders of magnitude (e.g., 1 to 10 to 100), preferably up to a ten-fold change, as compared to the release of a bioactive agent from a solid matrix without the release rate modification agent. For example, naltrexone and doxycycline are substantially completely released from a polymer matrix comprised of poly(DL-lactide) within about 2-3 days ex vivo. With the addition of a release rate modification agent such as ethyl heptanoate which is hydrophobic to the polymer solution, and formation of the implant matrix through interaction of the polymer solution and an aqueous medium, the release rate of naltrexone or doxycycline can be slowed to produce substantially complete release of the drug within about seven days. With the inclusion of a greater amount of a release rate modification agent into the polymer solution, the time period of the release can be increased to about fourteen days. Other release rate modification agents which are hydrophilic such as polyethylene glycol may increase the release of the bioactive agent. […]

Row | Compound | cumulative release ([1]; day 1) | cumulative release ([1]; day 7) | cumulative percent release ([1]; day 1) | cumulative percent release ([1]; day 7) | time period of the release ([2]; poly(DL-lactide) matrix with a greater amount of release rate modification agent) | time to substantially complete release from polymer matrix ([2]; poly(DL-lactide) matrix with ethyl heptanoate added as release rate modification agent)
1 | CC(C(=O)O)c1ccc(-c2ccccc2)c(F)c1 (stereo not drawn) [flurbiprofen] | about 11.4% | about 23% | about 23% | about 40% | – | –
2 | O=C1CC[C@@]2(O)[C@H]3Cc4ccc(O)c5c4[C@@]2(CCN3CC2CC2)[C@H]1O5 [naltrexone] | – | – | – | – | about fourteen | about seven
